Source: US20250332159A1, “REACTIVE OXYGEN SPECIES MODULATION THROUGH BINDING OF LIGANDS AT THE NQ-BINDING SITE OF THE RESPIRATORY COMPLEX III” (University of Health Sciences & Pharmacy in St. Louis, priority 2024, published 2025)

What was measured:
Type in all cases: cell-based, human
MCF7 cells [1] = assay: Qo and Qi inhibition experiments: mitochondrial superoxide anion with myxothiazol or antimycin A; conditions: for mitochondrial superoxide anion level, ligand with antimycin (ANT): 25 μM ligand + 25 μM ANT (Qi site inhibitor); for mitochondrial superoxide anion level, ligand with myxothiazol (MYX): 25 μM ligand + 25 μM MYX (Qo site inhibitor)
Procedure: (§1) The MCF7 breast cancer cell line (ATCC, HTB-22) was purchased from American Type Culture Collection (ATCC, Manassas, VA) and propagated in Eagle's minimum essential medium (EMEM, ATCC) supplemented with 10% FBS (Thermo Scientific), 1% L-glutamine and 1% penicillin/streptomycin (ATCC) in a humidified incubator at 37° C. and 5% CO2. Cells were harvested and seeded into a 96-well black plate at a cell density of 25,000 cells/well and left overnight to adhere. Afterward, cells were treated with 25 μM of the 14 purchased ligands from MolPort (Riga, Latvia), positive control (i.e., doxorubicin), and negative control (i.e., DMSO) and left in the incubator for 6-8 hours. For the Qo and Qi inhibition experiments, 25 μM of myxothiazol or antimycin A (Sigma-Aldrich), respectively were also incubated. Negative controls for the inhibition experiments were composed of DMSO and either 25 μM of myxothiazol or antimycin A. Afterward, cells were washed and stained for 30 minutes at 37° C. and 5% CO2 in the dark using the CellRox Green (Invitrogen, USA) or the MitoSOX Red Assay Kit (Invitrogen, USA). Afterward, cells were washed, and total cellular ROS or mitochondrial superoxide anion levels were measured using the Synergy Biotek UV/Vis/fluorescence microplate reader with excitation/emission wavelengths of 490/525 nm or 396/610 nm, respectively. Nuclei were labeled using NucBlue Live ReadyProbes Reagent (Hoechst 33342). All experiments were performed in at least triplicate and repeated for at least three independent trials.

MCF7 cells [2] = assay: Total cellular ROS measurement (CellRox Green); conditions: 25 μM, 6-8 hours
Procedure: as §1

MCF7 cells [3] = assay: MTS cytotoxicity assay; conditions: MCF7 cell line, 48 hours
Source text: MCF7 cells were harvested and seeded at a cell density of 5,000 cells/well into a 96-well white plate and left overnight to adhere. […] Then, cells were washed and assayed for cytotoxicity using CellTiter 96® AQueous One Solution Cell Proliferation Assay kit (MTS) (Promega, USA), which is a colorimetric assay containing colorless tetrazolium compound that is bio-reduced by NADPH or NADH produced by dehydrogenase enzymes in metabolically active cells into a colored formazan product that can be measured at wavelength 490 nm using the Synergy Biotek plate reader. Sequential treatment was performed by incubating the overnight attached MCF7 cells with 25 μM of MH-200102 for 24 hours. Then, the cells were washed once and incubated with different concentrations of MH-101015 for another 24 hours. Then, the cells were assayed for cytotoxicity, as mentioned above.

SMILES | mitochondrial superoxide anion level, ligand with antimycin (ANT) (MCF7 cells [1]) | mitochondrial superoxide anion level, ligand with myxothiazol (MYX) (MCF7 cells [1]) | total ROS level compared to negative control (DMSO) (MCF7 cells [2]) | IC50 (MCF7 cells [3]; Homo sapiens, single treatment, read-out: cytotoxic activity IC50) | cytotoxic activity (MCF7 cells [3]; 0-100 μM)
COCc1cnc2n1CCN(C(=O)c1cscn1)[C@H]2C [MH-131013] | ANT blocks any ROS down-regulating activity | MYX blocks any ROS down-modulating activity | total ROS down-regulating activity | – | –
O=C(O)c1cccc2ncccc12 [MH-01015] | ANT blocks any ROS down-regulating activity | MYX blocks any ROS down-modulating activity | total ROS down-regulating activity | – | –
O=C(CSc1ccccc1)NCCCn1ccnc1 [MH-200102] | – | MYX blocks the ROS up-modulating activity | twofold | 14.6 µM | –
Cc1cc(I)ccc1NC(=O)c1ccc(Br)c(N)c1 [MH-04504] | – | MYX blocks the ROS up-modulating activity | modest total ROS upregulating activity | – | modest cytotoxic activity
